How the values were obtained:
Experiment in all cases: relative viability (nuclei count vs DMSO), 5 days (fraction); higher = more cells survive
HCC-366 = test system: HCC-366
Outline: (§1)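 Medians of duplicate plates are given as relative viability. That measure is the nuclei count in treated wells divided by the count in vehicle wells. Counts were taken on 4× images of lung cancer cell lines in 1536-well plates, 5 days after pin-tool dosing the day after seeding with one drug alone or a fixed anchor-drug dose plus five library-drug doses (not always all listed) in √10 steps.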

NCI-H2405 = test system: NCI-H2405
Outline: as §1

BEN = test system: BEN
Outline: as §1

NCI-H1734 = test system: NCI-H1734
Outline: as §1

NCI-H2009 = test system: NCI-H2009
Outline: as §1

SK-LU-1 = test system: SK-LU-1
Outline: as §1

HARA = test system: HARA
Outline: as §1

NCI-H1437 = test system: NCI-H1437
Outline: as §1

NCI-H522 = test system: NCI-H522
Outline: as §1

SK-MES-1 = test system: SK-MES-1
Outline: as §1

NCI-H1993 = test system: NCI-H1993
Outline: as §1

NCI-H1355 = test system: NCI-H1355
Outline: as §1

NCI-H2170 = test system: NCI-H2170
Outline: as §1

EKVX = test system: EKVX
Outline: as §1

NCI-H2342 = test system: NCI-H2342
Outline: as §1

NCI-H1395 = test system: NCI-H1395
Outline: as §1

LOU-NH91 = test system: LOU-NH91
Outline: as §1

HCC-827 = test system: HCC-827
Outline: as §1

NCI-H647 = test system: NCI-H647
Outline: as §1

NCI-H661 = test system: NCI-H661
Outline: as §1

## CC(=O)O[C@@]12CO[C@@H]1C[C@H](O)[C@@]1(C)C(=O)[C@H](O)C3=C(C)[C@@H](OC(=O)[C@H](O)[C@@H](NC(=O)OC(C)(C)C)c4ccccc4)C[C@@](O)([C@@H](OC(=O)c4ccccc4)[C@H]21)C3(C)C [Docetaxel] + Cc1cc(Nc2cc(N3CCN(C)CC3)nc(Sc3ccc(NC(=O)C4CC4)cc3)n2)n[nH]1 [Tozasertib] (partner 0.1 µM)
HCC-366; first compound 0.0002 µM
  relative viability: 0.097
HCC-366; first compound 0.000632 µM
  relative viability: 0.0628
HCC-366; first compound 0.002 µM
  relative viability: 0.0488
HCC-366; first compound 0.006325 µM
  relative viability: 0.0475
HCC-366; first compound 0.02 µM
  relative viability: 0.0231
NCI-H2405; first compound 0.0002 µM
  relative viability: 0.699
NCI-H2405; first compound 0.000632 µM
  relative viability: 0.556
NCI-H2405; first compound 0.002 µM
  relative viability: 0.461
NCI-H2405; first compound 0.006325 µM
  relative viability: 0.361
NCI-H2405; first compound 0.02 µM
  relative viability: 0.278
BEN; first compound 0.0002 µM
  relative viability: 0.499
BEN; first compound 0.000632 µM
  relative viability: 0.503
BEN; first compound 0.002 µM
  relative viability: 0.473
BEN; first compound 0.006325 µM
  relative viability: 0.418
BEN; first compound 0.02 µM
  relative viability: 0.426
NCI-H1734; first compound 0.0002 µM
  relative viability: 0.308
NCI-H1734; first compound 0.000632 µM
  relative viability: 0.345
NCI-H1734; first compound 0.002 µM
  relative viability: 0.302
NCI-H1734; first compound 0.006325 µM
  relative viability: 0.341
NCI-H1734; first compound 0.02 µM
  relative viability: 0.292
NCI-H2009; first compound 0.0002 µM
  relative viability: 0.626
NCI-H2009; first compound 0.000632 µM
  relative viability: 0.747
NCI-H2009; first compound 0.002 µM
  relative viability: 0.682
NCI-H2009; first compound 0.006325 µM
  relative viability: 0.553
NCI-H2009; first compound 0.02 µM
  relative viability: 0.302
SK-LU-1; first compound 0.0002 µM
  relative viability: 0.297
SK-LU-1; first compound 0.000632 µM
  relative viability: 0.302
SK-LU-1; first compound 0.002 µM
  relative viability: 0.308
SK-LU-1; first compound 0.006325 µM
  relative viability: 0.252
SK-LU-1; first compound 0.02 µM
  relative viability: 0.217
HARA; first compound 0.0002 µM
  relative viability: 0.0918
HARA; first compound 0.000632 µM
  relative viability: 0.102
HARA; first compound 0.002 µM
  relative viability: 0.0951
HARA; first compound 0.006325 µM
  relative viability: 0.0945
HARA; first compound 0.02 µM
  relative viability: 0.0738
NCI-H1437; first compound 0.0002 µM
  relative viability: 0.354
NCI-H1437; first compound 0.000632 µM
  relative viability: 0.374
NCI-H1437; first compound 0.002 µM
  relative viability: 0.241
NCI-H1437; first compound 0.006325 µM
  relative viability: 0.273
NCI-H1437; first compound 0.02 µM
  relative viability: 0.201
NCI-H522; first compound 0.0002 µM
  relative viability: 0.559
NCI-H522; first compound 0.000632 µM
  relative viability: 0.451
NCI-H522; first compound 0.002 µM
  relative viability: 0.527
NCI-H522; first compound 0.006325 µM
  relative viability: 0.551
NCI-H522; first compound 0.02 µM
  relative viability: 0.585
SK-MES-1; first compound 0.0002 µM
  relative viability: 0.974
SK-MES-1; first compound 0.000632 µM
  relative viability: 0.459
SK-MES-1; first compound 0.002 µM
  relative viability: 0.252
SK-MES-1; first compound 0.006325 µM
  relative viability: 0.166
SK-MES-1; first compound 0.02 µM
  relative viability: 0.134
NCI-H1993; first compound 0.0002 µM
  relative viability: 0.644
NCI-H1993; first compound 0.000632 µM
  relative viability: 0.592
NCI-H1993; first compound 0.002 µM
  relative viability: 0.604
NCI-H1993; first compound 0.006325 µM
  relative viability: 0.515
NCI-H1993; first compound 0.02 µM
  relative viability: 0.586
NCI-H1355; first compound 0.0002 µM
  relative viability: 0.453
NCI-H1355; first compound 0.000632 µM
  relative viability: 0.43
NCI-H1355; first compound 0.002 µM
  relative viability: 0.271
NCI-H1355; first compound 0.006325 µM
  relative viability: 0.263
NCI-H1355; first compound 0.02 µM
  relative viability: 0.202
NCI-H2170; first compound 0.0002 µM
  relative viability: 0.615
NCI-H2170; first compound 0.000632 µM
  relative viability: 0.581
NCI-H2170; first compound 0.002 µM
  relative viability: 0.43
NCI-H2170; first compound 0.006325 µM
  relative viability: 0.222
NCI-H2170; first compound 0.02 µM
  relative viability: 0.175
EKVX; first compound 0.0002 µM
  relative viability: 0.519
EKVX; first compound 0.000632 µM
  relative viability: 0.409
EKVX; first compound 0.002 µM
  relative viability: 0.224
EKVX; first compound 0.006325 µM
  relative viability: 0.212
EKVX; first compound 0.02 µM
  relative viability: 0.149
NCI-H2342; first compound 0.0002 µM
  relative viability: 0.584
NCI-H2342; first compound 0.000632 µM
  relative viability: 0.539
NCI-H2342; first compound 0.002 µM
  relative viability: 0.543
NCI-H2342; first compound 0.006325 µM
  relative viability: 0.466
NCI-H2342; first compound 0.02 µM
  relative viability: 0.297
NCI-H1395; first compound 0.0002 µM
  relative viability: 0.698
NCI-H1395; first compound 0.000632 µM
  relative viability: 0.753
NCI-H1395; first compound 0.002 µM
  relative viability: 0.59
NCI-H1395; first compound 0.006325 µM
  relative viability: 0.372
NCI-H1395; first compound 0.02 µM
  relative viability: 0.325
LOU-NH91; first compound 0.0002 µM
  relative viability: 0.657
LOU-NH91; first compound 0.000632 µM
  relative viability: 0.574
LOU-NH91; first compound 0.002 µM
  relative viability: 0.39
LOU-NH91; first compound 0.006325 µM
  relative viability: 0.383
LOU-NH91; first compound 0.02 µM
  relative viability: 0.247
HCC-827; first compound 0.0002 µM
  relative viability: 0.406
HCC-827; first compound 0.000632 µM
  relative viability: 0.412
HCC-827; first compound 0.002 µM
  relative viability: 0.328
HCC-827; first compound 0.006325 µM
  relative viability: 0.332
HCC-827; first compound 0.02 µM
  relative viability: 0.295
NCI-H647; first compound 0.0002 µM
  relative viability: 0.258
NCI-H647; first compound 0.000632 µM
  relative viability: 0.339
NCI-H647; first compound 0.002 µM
  relative viability: 0.148
NCI-H647; first compound 0.006325 µM
  relative viability: 0.132
NCI-H647; first compound 0.02 µM
  relative viability: 0.103
NCI-H661; first compound 0.0002 µM
  relative viability: 0.367
NCI-H661; first compound 0.000632 µM
  relative viability: 0.387
NCI-H661; first compound 0.002 µM
  relative viability: 0.432
NCI-H661; first compound 0.006325 µM
  relative viability: 0.352
NCI-H661; first compound 0.02 µM
  relative viability: 0.4

From the supplement of paper PMC10307832
